Data set [1] relates to HCC1806 triple negative breast cancer. Description: In vivo anti-tumor activity in triple-negative breast HCC1806 tumor model. Particulars: 1 mg/kg to 2.5 mg/kg, every other week, once a week, or twice a week. Set-up: species or system immunodeficient nude mice. The method, then:
In vivo anti-tumor activity of Compound 16 was evaluated in triple-negative breast HCC1806 tumor model. HCC1806 cells were suspended with RPMI 1640 medium (phenol red free) and Matrigel™ in 1:1 ratio, and implanted subcutaneously (1×10^6 cells/flank) into the left flank of the immunodeficient nude mice. The tumor volume in mm^3 was calculated by the formula: Volume=(length×width^2)/2. Tumor-bearing mice were randomized (n=8 per group) when the average tumor volume was approximately at 210 mm^3 on day 10 after inoculation. Compound 16 was dissolved in DMA, cremorphor and 5% dextrose solution (1:2:27, v/v/v). Tumor-bearing mice were intravenously administered once weekly (qw) or bi-weekly (b2w) with multiple doses of vehicle control (5 mL/kg) and DBPR376 (2.5 mg/kg). Tumor size and body weight of each animal were measured twice weekly during the study period.
Compounds 8, 9, 11, 14, 16, 25, 26, and 27 were evaluated following the procedure described above.

Data set [2] addresses T1, LHRHR, also known as GnRHR (Homo sapiens, UniProt P30968).
T1 sequence (P30968 1-328): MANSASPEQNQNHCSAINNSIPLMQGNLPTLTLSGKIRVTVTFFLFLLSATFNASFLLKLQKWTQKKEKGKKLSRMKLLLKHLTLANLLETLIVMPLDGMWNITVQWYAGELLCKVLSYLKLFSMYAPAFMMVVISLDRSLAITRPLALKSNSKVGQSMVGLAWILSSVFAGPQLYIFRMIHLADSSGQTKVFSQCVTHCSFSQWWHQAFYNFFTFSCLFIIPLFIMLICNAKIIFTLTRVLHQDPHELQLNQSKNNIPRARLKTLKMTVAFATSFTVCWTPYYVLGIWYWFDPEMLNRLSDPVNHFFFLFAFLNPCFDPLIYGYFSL
Description: Radioligand binding assay ([125I]-[D-Trp6]-LHRH displacement). The conditions noted are these: purified membrane with LHRHR, 0.18 nM [125I]-[D-Trp6]-LHRH, 1 h at 25° C.; read-out: Binding Assay. The method, then: An amount of 2 μg of a purified membrane with LHRHR, also known as GnRHR, was incubated with 0.18 nM [125I]-[D-Trp6]-LHRH and compounds of interest in the incubation buffer (50 mM HEPES, pH 7.4, 5 mM MgCl2, 1 mM CaCl2, and 0.2% BSA). The reaction mixtures were incubated for 1 h at 25° C. and then were transferred to a 96-well GF/B filter plate (Millipore Corp., Billerica, MA, USA), which were terminated by manifold filtration and washed with a wash buffer (50 mM HEPES, pH 7.4, and 100 mM NaCl) for six times. The radioactivity bound to the filter was measured by a Topcount® system (PerkinElmer Inc., Waltham, MA, USA). IC50 values were determined by the concentration of a compound required to inhibit 50% of the specific binding of [125I]-[D-Trp6]-LHRH and calculated by nonlinear regression (GraphPad Software, San Diego, CA, USA). The design of these drug conjugates is to actively targeting LHRH-receptor at tumor site and facilitate drug conjugate accumulation in situ. Therefore, selective and strong binding of the synthetic peptide ligand with the receptor is important to allow enrichment of these conjugates, followed by release of the drug payload in the tumor microenvironment.
Compounds of the invention have a binding as low as 0.17 nM.

The nature of data set [3]: In vivo pharmacokinetic profile, mouse single IV dose. Particulars: for Vss (I/kg) / clearance / AUC(0-t): Mouse IV, dose 5 mg/kg; for clearance / AUC(0-t): in vivo; for AUC(0-t): read-out: AUC(0-24 hr). As to the method:
Pharmacokinetic properties of compounds of the invention were measured following the procedures described in Liu et al., Bioconjugate Chem. 2017, 28, 7, 1878-1892.

Where a SMILES comes first, the peptide text is derived from it. [ ]: non-standard residue; d: D form. The star is where a group is joined. Paclitaxel(2'-O-succinyl) = CC(=O)O[C@H]1C(=O)[C@@]2(C)[C@H]([C@H](OC(=O)c3ccccc3)[C@]3(O)C[C@H](OC(=O)[C@H](OC(=O)CCC(=O)*)[C@@H](NC(=O)c4ccccc4)c4ccccc4)C(C)=C1C3(C)C)[C@]1(OC(C)=O)CO[C@@H]1C[C@@H]2O; X2 = COc1cc2cc(c1Cl)N(C)C(=O)C[C@H](OC(=O)[C@H](C)N(C)C(=O)CCSSCCC(=O)NCCOCCOCCn1nnc3c1CC[C@H]1[C@@H](CC3)[C@@H]1COC(=O)*)[C@]1(C)O[C@H]1[C@H](C)[C@@H]1C[C@@](O)(NC(=O)O1)[C@H](OC)/C=C/C=C(\C)C2; d(hArg(Et2)) = CCN=C(NCC)NCCCC[C@@H](N)C(=O)O; dPhe(4-Cl) = N[C@H](Cc1ccc(Cl)cc1)C(=O)O; d2Nal = N[C@H](Cc1ccc2ccccc2c1)C(=O)O; dCit = NC(=O)NCCC[C@@H](N)C(=O)O; d3Pal = N[C@H](Cc1cccnc1)C(=O)O

The results in this text go back to patent US20250121078A1, “PEPTIDE DRUG CONJUGATES AND THEIR USES” (priority 2023, published 2025).

Turning to `CCNC(=NCCCC[C@@H](NC(=O)[C@H](CC(C)C)NC(=O)[C@@H](CCCCNC(=O)OC[C@H]1[C@@H]2CCc3nnn(CCOCCOCCNC(=O)CCSSCCC(=O)N(C)[C@@H](C)C(=O)O[C@H]4CC(=O)N(C)c5cc(cc(OC)c5Cl)C/C(C)=C/C=C/[C@@H](OC)[C@@]5(O)C[C@H](OC(=O)N5)[C@@H](C)[C@@H]5O[C@@]45C)c3CC[C@@H]21)NC(=O)[C@H](Cc1ccc(O)cc1)NC(=O)[C@H](CO)NC(=O)[C@@H](Cc1cccnc1)NC(=O)[C@@H](Cc1ccc(Cl)cc1)NC(=O)[C@@H](Cc1ccc2ccccc2c1)NC(C)=O)C(=O)N1CCC[C@H]1C(=O)N[C@H](C)C(N)=O)NCC` [Compound 26] (Ac-[d2Nal][dPhe(4-Cl)][d3Pal]SY[dK](X2)L[d(hArg(Et2))]P[dA]-NH2), in data set [1], the “inhibition of in vivo tumor growth” value is on record as “effectively inhibited”. As to `COc1cc2cc(c1Cl)N(C)C(=O)C[C@H](OC(=O)[C@H](C)N(C)C(=O)CCSSCCC(=O)NCCOCCOCCn1nnc3c1CC[C@H]1[C@@H](CC3)[C@@H]1COC(=O)NCCCC[C@@H](NC(=O)[C@H](Cc1ccc(O)cc1)NC(=O)[C@H](CO)NC(=O)[C@@H](Cc1cccnc1)NC(=O)[C@@H](Cc1ccc(Cl)cc1)NC(=O)[C@@H](Cc1ccc3ccccc3c1)NC(C)=O)C(=O)N[C@@H](CC(C)C)C(=O)N[C@@H](CCCNC(=N)N)C(=O)N1CCC[C@H]1C(=O)N[C@H](C)C(N)=O)[C@]1(C)O[C@H]1[C@H](C)[C@@H]1C[C@@](O)(NC(=O)O1)[C@H](OC)/C=C/C=C(\C)C2` [Compound 25] (Ac-[d2Nal][dPhe(4-Cl)][d3Pal]SY[dK](X2)LRP[dA]-NH2), the “inhibition of in vivo tumor growth” value in data set [1] is recorded as “effectively inhibited”. Regarding `CC(=O)N[C@H](Cc1ccc2ccccc2c1)C(=O)N[C@H](Cc1ccc(Cl)cc1)C(=O)N[C@H](Cc1cccnc1)C(=O)N[C@@H](CO)C(=O)N[C@H](CCCCN)C(=O)N[C@H](CCCNC(N)=O)C(=O)N[C@@H](CC(C)C)C(=O)N[C@@H](CCCNC(=N)N)C(=O)N1CCC[C@H]1C(=O)N[C@H](C)C(N)=O` [Compound 1] (Ac-[d2Nal][dPhe(4-Cl)][d3Pal]S[dK][dCit]LRP[dA]-NH2), the IC50 in data set [2] is > 100 nM. Still for that read-out and setting: to `CC(=O)N[C@H](Cc1ccc2ccccc2c1)C(=O)N[C@H](Cc1ccc(Cl)cc1)C(=O)N[C@H](Cc1cccnc1)C(=O)N[C@@H](CO)C(=O)N[C@@H](Cc1ccc(O)cc1)C(=O)N[C@H](CCCCN)C(=O)N[C@@H](CC(C)C)C(=O)N[C@@H](CCCNC(=N)N)C(=O)N1CCC[C@H]1C(=O)N[C@H](C)C(N)=O` [Compound 2] (Ac-[d2Nal][dPhe(4-Cl)][d3Pal]SY[dK]LRP[dA]-NH2) belongs 0.1 to 1 nM. For the compound `COc1cc2cc(c1Cl)N(C)C(=O)C[C@H](OC(=O)[C@H](C)N(C)C(=O)CCSC(=O)c1ccc(CN(CCOCCOCCn3nnc4c3CC[C@@H]3[C@H](CC4)[C@H]3COC(=O)N(CCCC[C@H](NC(=O)[C@H](CC(C)C)NC(=O)[C@@H](Cc3ccc(NC(N)=O)cc3)NC(=O)[C@H](Cc3ccc(NC(=O)[C@@H]4CC(=O)NC(=O)N4)cc3)NC(=O)[C@H](CO)NC(=O)[C@@H](Cc3cccnc3)NC(=O)[C@@H](Cc3ccc(Cl)cc3)NC(=O)[C@@H](Cc3ccc4ccccc4c3)NC(C)=O)C(=O)N3CCC[C@H]3C(=O)N[C@H](C)C(N)=O)C(C)C)C(=O)C3(c4ccc(Cl)cc4)CCCCC3)cc1)[C@]1(C)O[C@H]1[C@H](C)[C@@H]1C[C@@](O)(NC(=O)O1)[C@H](OC)/C=C/C=C(\C)C2` [Compound 9], in data set [3], the “Vss (I/kg)” value was determined as 0.2 I/kg, the clearance turned out to be 6.7 mL/min/kg and the AUC(0-t) came to 12500 ng·h/mL. Further, the AUC coverage entry in data set [3] (single intravenous dose) is “extensive AUC coverage”. For the same compound, the “inhibition of in vivo tumor growth” value in data set [1] is listed as “effectively inhibited”. Take `CCNC(=NCCCC[C@@H](NC(=O)[C@H](CC(C)C)NC(=O)[C@@H](CCCCNC(=O)OC[C@H]1[C@@H]2CCc3nnn(CCOCCOCCN(Cc4ccc(C(=O)SCCC(=O)N(C)[C@@H](C)C(=O)O[C@H]5CC(=O)N(C)c6cc(cc(OC)c6Cl)C/C(C)=C/C=C/[C@@H](OC)[C@@]6(O)C[C@H](OC(=O)N6)[C@@H](C)[C@@H]6O[C@@]56C)cc4)C(=O)C4(c5ccc(Cl)cc5)CCCCC4)c3CC[C@@H]21)NC(=O)[C@H](Cc1ccc(O)cc1)NC(=O)[C@H](CO)NC(=O)[C@@H](Cc1cccnc1)NC(=O)[C@@H](Cc1ccc(Cl)cc1)NC(=O)[C@@H](Cc1ccc2ccccc2c1)NC(C)=O)C(=O)N1CCC[C@H]1C(=O)N[C@H](C)C(N)=O)NCC` [Compound 11]: in data set [3], the “Vss (I/kg)” value turned out to be 0.1 I/kg, the clearance turned out to be 4 mL/min/kg and the AUC(0-t) stood at 21000 ng·h/mL. Further, the “inhibition of in vivo tumor growth” value in data set [1] is on record as “effectively inhibited”. In the case of `CCNC(=NCCCC[C@@H](NC(=O)[C@@H](CCCCNC(=O)CCC(=O)O[C@@H](C(=O)O[C@H]1C[C@@]2(O)[C@@H](OC(=O)c3ccccc3)[C@@H]3[C@]4(OC(C)=O)CO[C@@H]4C[C@H](O)[C@@]3(C)C(=O)[C@H](OC(C)=O)C(=C1C)C2(C)C)[C@@H](NC(=O)c1ccccc1)c1ccccc1)NC(=O)[C@H](CO)NC(=O)[C@@H](Cc1cccnc1)NC(=O)[C@@H](Cc1ccc(Cl)cc1)NC(=O)[C@@H](Cc1ccc2ccccc2c1)NC(C)=O)C(=O)N[C@@H](CC(C)C)C(=O)N[C@H](CCCCN=C(NCC)NCC)C(=O)N1CCC[C@H]1C(=O)N[C@H](C)C(N)=O)NCC` [Compound 7] (Ac-[d2Nal][dPhe(4-Cl)][d3Pal]S[dK](Paclitaxel(2'-O-succinyl))[d(hArg(Et2))]L[d(hArg(Et2))]P[dA]-NH2), the IC50 in data set [2] was > 100 nM. Consider `COc1cccc2c1C(=O)c1c(O)c3c(c(O)c1C2=O)C[C@@](O)(C(=O)CO)C[C@@H]3O[C@H]1C[C@H](NC(=O)OCc2ccc(NC(=O)[C@H](C)NC(=O)[C@@H](NC(=O)c3ccc(COCCOCCOCCn4nnc5c4CC[C@H]4[C@@H](CC5)[C@@H]4COC(=O)NCCCC[C@@H](NC(=O)[C@H](Cc4ccc(O)cc4)NC(=O)[C@H](CO)NC(=O)[C@@H](Cc4cccnc4)NC(=O)[C@@H](Cc4ccc(Cl)cc4)NC(=O)[C@@H](Cc4ccc5ccccc5c4)NC(C)=O)C(=O)N[C@@H](CC(C)C)C(=O)N[C@@H](CCCNC(=N)N)C(=O)N4CCC[C@H]4C(=O)N[C@H](C)C(N)=O)cc3)C(C)C)cc2)[C@H](O)[C@H](C)O1` [Compound 17], for which the IC50 in data set [2] lay in the range of 0.1 to 1 nM.

Regarding `CCNC(=NCCCC[C@@H](NC(=O)[C@H](Cc1ccc(O)cc1)NC(=O)[C@H](CO)NC(=O)[C@@H](Cc1cccnc1)NC(=O)[C@@H](Cc1ccc(Cl)cc1)NC(=O)[C@@H](Cc1ccc2ccccc2c1)NC(C)=O)C(=O)N[C@H](CCCCN)C(=O)N[C@H](CCCCN=C(NCC)NCC)C(=O)N1CCC[C@H]1C(=O)N[C@H](C)C(N)=O)NCC` [Compound 5] (Ac-[d2Nal][dPhe(4-Cl)][d3Pal]SY[d(hArg(Et2))][dK][d(hArg(Et2))]P[dA]-NH2), in data set [2], the IC50 is > 100 nM. The same measure, in the same setting: in the case of `CC(=O)N[C@H](Cc1ccc2ccccc2c1)C(=O)N[C@H](Cc1ccc(Cl)cc1)C(=O)N[C@H](Cc1cccnc1)C(=O)N[C@@H](CO)C(=O)N[C@@H](Cc1ccc(O)cc1)C(=O)N[C@H](CCCNC(N)=O)C(=O)N[C@H](CCCCN)C(=O)N[C@@H](CCCNC(=N)N)C(=O)N1CCC[C@H]1C(=O)N[C@H](C)C(N)=O` [Compound 3] (Ac-[d2Nal][dPhe(4-Cl)][d3Pal]SY[dCit][dK]RP[dA]-NH2) it was 10 to 100 nM.

Take `CC(=O)N[C@H](Cc1ccc2ccccc2c1)C(=O)N[C@H](Cc1ccc(Cl)cc1)C(=O)N[C@H](Cc1cccnc1)C(=O)N[C@@H](CO)C(=O)N[C@@H](Cc1ccc(O)cc1)C(=O)N[C@H](CCCCN)C(=O)N[C@@H](CC(C)C)C(=O)N[C@H](CCCNC(=N)N)C(=O)N1CCC[C@H]1C(=O)N[C@H](C)C(N)=O` [Compound 13] (Ac-[d2Nal][dPhe(4-Cl)][d3Pal]SY[dK]L[dR]P[dA]-NH2): the IC50 in data set [2] was 10 to 100 nM.
